Results on seven compounds are retold here after US20110306563A1, “MACROLACTONE DERIVATIVES, METHOD FOR THE PRODUCTION THEREOF AND USE THEREOF FOR THE TREATMENT OF CANCER” (SANOFI, priority 2008, published 2011).

What all share (format): cell-based
Assay [1] deals with HCT116. Kind of assay: 14C-Thymidine incorporation assay, HCT116. To be noted: Homo sapiens, HCT-116. How it is done:
(§1) Experimental conditions for 14C-Thymidine incorporation assays: • 1) Cells were seeded in 96 well Cytostar microplates in 180 μl of culture medium (DMEM supplemented with 10% Fetal Calf Serum). • Seeding density are 2500 cells/well for HCT116, 5000 cells/well for HT29 and PC3 and 10000 cells/well for MDA-MB231, MDA-A1, H460 and B16F10. • 2) The microplates were incubated 4 h at 37° C. with 5% CO2 • 3) 10 μl of test compound were added • 4) The microplates were incubated 72 h at 37° C. with 5% CO2 • 5) 10 μl of 14C-Thymidine at 10 μCi/ml was added • 6) The microplates were incubated 24 h at 37° C. with 5% CO2 • 7) The radioactivity incorporated in the cells was measured with a Microbeta Trilux radioactivity scintillation counter (Wallac).

Assay [2] relates to B16F10. Kind of assay: 14C-Thymidine incorporation assay, B16F10. To be noted: Mus musculus, B16-F10; B16F10, Melanoma; 72 h + 24 h 14C-Thymidine. On the procedure: as §1
For orientation: Dividing cells build labelled thymidine or BrdU into new DNA.

For assay [3], the system named is MDA-A1. Kind of assay: 14C-Thymidine incorporation assay, MDA-A1. Conditions: MDA-A1, Breast; 72 h + 24 h 14C-Thymidine. How it is done:
as §1

Assay [4] has as its system HT29. Put plainly: 14C-Thymidine incorporation assay, HT29. To be noted: Homo sapiens, HT-29; HT29, Colon; 72 h + 24 h 14C-Thymidine. How it is done:
as §1

In assay [5] the test system is PC3. Kind of assay: 14C-Thymidine incorporation assay, PC3. Conditions: Homo sapiens, PC-3; PC3, Prostate; 72 h + 24 h 14C-Thymidine. On the procedure: as §1
Assay [6] has as its system Normal Human Dermal Fibroblasts (NHDF). Kind of assay: ATP viability assay (CellTiterGlo), NHDF. To be noted: 96 h incubation. How it is done:
(§2) Experimental conditions for ATP viability assays: • 1) Cells were seeded in 96 well microplates in 135 μl of culture medium. • Culture medium used were RPMI supplemented with 10% Fetal Calf Serum for HL60 and CEM cell lines and DMEM with 10% FCS for Normal Human Dermal Fibroblasts (NHDF). Seeding density was 25000 cells/well for HL60 and CEM and 7500 cells/well for NHDF. • 2) The microplates were incubated 4 h at 37° C. with 5% CO2. • 3) 15 μl of test compound were added • 4) The microplates were incubated 96 h. • 5) 100 μl of a mix of lysing reagent and luciferase/luciferin was added (CellTiterGlo, Promega). The luminescence emitted was measured with a Microbeta Trilux counter (Wallac).

Assay [7] deals with H460. Put plainly: 14C-Thymidine incorporation assay, H460. To be noted: Homo sapiens, NCI-H460; H460, Lung; 72 h + 24 h 14C-Thymidine. On the procedure:
as §1

Assay [8] deals with MDA-MB231. Kind of assay: 14C-Thymidine incorporation assay, MDA-MB231. Conditions: Homo sapiens, MDA-MB-231; MDA-MB231, Breast; 72 h + 24 h 14C-Thymidine. On the procedure: as §1
The subject of assay [9] is CEM. Kind of assay: ATP viability assay (CellTiterGlo), CEM. To be noted: Homo sapiens, CCRF-CEM, Leukemia, 96 h incubation. How it is done:
as §2

Assay [10] concerns HL60. Put plainly: ATP viability assay (CellTiterGlo), HL60. Conditions: Homo sapiens, HL-60; HL60, Leukemia; 96 h incubation. On the procedure: as §2
Background: In ATP-based viability assays light output follows the ATP content of the culture.

[11] abbreviates: HCT116 (colon), average, read-out: Average IC50 (nM) against HCT116 (colon).
Setting [12] is: HCT116, Colon, 72 h + 24 h 14C-Thymidine, read-out: IC50.

Read-outs that look alike come from different tables or passages of the source.

What is called IC50 is the concentration at which inhibition is half-maximal.

For `CCC(C)C1C(=O)NC(Cc2cc(Cl)c(O)c(Br)c2)C(=O)NC(C(C)(C)O)C(=O)OC(c2ccccc2)C(C)/C=C/C=C(\C)C(OC)CC2OC2(C)C(=O)N1C` (stereo not drawn) [VI], in assay [1] (setting [11]), the IC50 was 0.393 nM.

As to `CCC(C)C1C(=O)NC(Cc2ccc(O)c(Br)c2)C(=O)NC(C(C)(C)O)C(=O)OC(c2ccccc2)C(C)/C=C/C=C(\C)C(OC)CC2OC2(C)C(=O)N1C` (stereo not drawn) [VII], the concentration for half-maximal inhibition (IC50) in assay [1] (setting [11]) was found to be 0.268 nM.

Turning to `COC1CC2OC2(C)C(=O)N(C)C(C(C)C)C(=O)NC(Cc2cc(Cl)c(O)c(Cl)c2)C(=O)NC(C(C)(C)O)C(=O)OC(c2ccccc2)C(C)/C=C/C=C/1C` (stereo not drawn) [V], the IC50 in [1] (setting [11]) is 0.673 nM.

Turning to `CCC(C)C1C(=O)NC(Cc2cc(Cl)c(O)c(Cl)c2)C(=O)NC(C(C)(C)O)C(=O)OC(c2ccccc2)C(C)/C=C/C=C(\C)C(OC)CC2OC2(C)C(=O)N1C` (stereo not drawn) [II], the IC50 in assay [2] was 4.5 to 25.2 nM; in assay [3], 1.4 to 20.8 nM; in [4], 3 to 12.5 nM; in assay [5], 4.4 to 16 nM; in assay [6], 6.2 to 9.5 nM; in assay [7], 9.1 to 10.4 nM. Also, the IC50 in assay [8] fell in the range of 4.8 to 16.8 nM; in assay [1] (setting [12]), 0.6 to 5.6 nM; in assay [9], 7.1 to 10.5 nM; in [10], 9.5 to 15 nM.

Consider `CCC(C)C1C(=O)NC(Cc2ccc(O)c(Cl)c2)C(=O)NC(C(C)(C)O)C(=O)OC(c2ccccc2)C(C)/C=C/C=C(\C)C(OC)CC2OC2(C)C(=O)N1C` (stereo not drawn) [III], for which the IC50 in [1] (setting [11]) came to 0.326 nM.

As to `CCC(C)C1C(=O)NC(Cc2ccc(O)c(Br)c2)C(=O)NC(C(C)(C)O)C(=O)OC(c2ccccc2)C(C)/C=C/C=C(\C)C(OC)C/C=C(/C)C(=O)N1C` (stereo not drawn) [VIII], the half-inhibitory concentration (IC50) in assay [1] (setting [11]) came to 2.1 nM.

`CCC(C)C1C(=O)NC(Cc2cc(Cl)c(OC)c(Cl)c2)C(=O)NC(C(C)(C)O)C(=O)OC(c2ccccc2)C(C)/C=C/C=C(\C)C(OC)CC2OC2(C)C(=O)N1C` (stereo not drawn) [IX]: the IC50 in assay [3] is 9.6 to 14.1 nM; in assay [8], 5.1 to 8.4 nM; in [1] (setting [12]), 2.1 to 2.2 nM.
